From PubChem BioAssay (NCI)
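In this assay, cells in 96-well plates receive the compound at five concentrations for 48 hours. Endpoints are linearly interpolated between the surrounding concentrations. GI50 = concentration required for 50% inhibition of growth. TGI denotes the concentration required for complete inhibition of growth.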

Experiments:
Assay in all cases: inhibition of tumour cell growth, NCI panel, 48 h
HCT-15 colon = tested on: HCT-15 colon
KM12 colon = tested on: KM12 colon
SK-MEL-5 melanoma = tested on: SK-MEL-5 melanoma
HL-60(TB) leukemia = tested on: HL-60(TB) leukemia
MALME-3M melanoma = tested on: MALME-3M melanoma
NCI-H226 lung = tested on: NCI-H226 lung
U251 CNS = tested on: U251 CNS
EKVX NSCLC = tested on: EKVX NSCLC
SK-MEL-2 melanoma = tested on: SK-MEL-2 melanoma
MDA-MB-231 breast = tested on: MDA-MB-231 breast

| Compound | TGI (HCT-15 colon) | TGI (KM12 colon) | TGI (SK-MEL-5 melanoma) | TGI (HL-60(TB) leukemia) | TGI (MALME-3M melanoma) | TGI (NCI-H226 lung) | TGI (U251 CNS) | TGI (EKVX NSCLC) | TGI (SK-MEL-2 melanoma) | GI50 (HCT-15 colon) | GI50 (KM12 colon) | GI50 (MDA-MB-231 breast) | TGI (MDA-MB-231 breast) | GI50 (SK-MEL-5 melanoma) | GI50 (HL-60(TB) leukemia) | GI50 (NCI-H226 lung) | GI50 (U251 CNS) | GI50 (SK-MEL-2 melanoma) | GI50 (MALME-3M melanoma) | GI50 (EKVX NSCLC) |
| --- | --- | --- | --- | --- | --- | --- | --- | --- | --- | --- | --- | --- | --- | --- | --- | --- | --- | --- | --- | --- |
| Cc1cc(N(CCC#N)CCC#N)ccc1/C=C1/CN(N2C(=O)/C(=C/c3ccc(N(CCC#N)CCC#N)cc3C)N=C2c2ccccc2)C(c2ccccc2)=N1 | > 100 µM | > 100 µM | > 100 µM | > 100 µM | > 100 µM | > 100 µM | > 100 µM | > 100 µM | – | – | – | – | – | – | – | – | – | – | – | – |
| Cc1cc(C)c(C(=O)O)c(N)c1O | > 100 µM | > 100 µM | > 100 µM | > 100 µM | > 100 µM | > 100 µM | > 100 µM | > 100 µM | > 100 µM | – | – | – | – | – | – | – | – | – | – | – |
| CC(C)(Cl)CCC1=C(Cl)C(=O)c2ccccc2C1=O | 3.05 µM | 5.32 µM | 3.57 µM | 3.84 µM | – | 14.5 µM | 8.67 µM | – | 4.97 µM | 1.58 µM | 2.28 µM | 1.73 µM | 3.65 µM | 1.78 µM | 1.33 µM | 3.38 µM | 2.43 µM | 2.43 µM | – | – |
| O=C1c2ccccc2C(=O)N1/N=C\c1ccc(Br)cc1 | > 100 µM | > 100 µM | > 100 µM | > 100 µM | > 100 µM | > 100 µM | > 100 µM | > 100 µM | > 100 µM | > 100 µM | > 100 µM | – | – | > 100 µM | > 100 µM | > 100 µM | – | > 100 µM | > 100 µM | > 100 µM |
| CSc1nc(NC2OCC(OC(C)=O)C(OC(C)=O)C2OC(C)=O)c(N=CC=Nc2c(NC3OCC(OC(C)=O)C(OC(C)=O)C3OC(C)=O)nc(SC)n(C)c2=O)c(=O)n1C (centres undefined) | > 100 µM | > 100 µM | > 100 µM | > 100 µM | > 100 µM | – | > 100 µM | > 100 µM | > 100 µM | – | – | – | – | – | – | – | – | – | – | – |
| COc1cccc(/C=C(/C(=O)O)c2cc(OC)c(OC)c(OC)c2)c1 | > 100 µM | > 100 µM | > 100 µM | > 100 µM | > 100 µM | > 100 µM | > 100 µM | > 100 µM | – | – | – | – | – | – | – | – | – | – | – | – |
| C[C@]12CCC[C@H](OC=O)C1(O)C[C@H](C(=O)O)CC2 (some centres undefined) | > 100 µM | > 100 µM | > 100 µM | > 100 µM | > 100 µM | > 100 µM | > 100 µM | 40.2 µM | > 100 µM | – | – | – | – | – | – | – | – | – | – | – |
| CCOC(=O)C12CCCC1(O)N(NC(=O)c1cccc(Cl)c1)C(C)=C2C(=O)OC (centres undefined) | > 100 µM | > 100 µM | > 100 µM | > 100 µM | > 100 µM | > 100 µM | > 100 µM | > 100 µM | > 100 µM | – | – | – | – | – | – | – | – | – | – | – |
| Cc1nc(NC(=S)NC(=O)c2ccc(Cl)c(Cl)c2)sc1C(=O)/C=C/c1ccccc1[N+](=O)[O-] | 51 µM | 39.3 µM | – | 45.8 µM | 41.9 µM | – | 32.9 µM | 91.6 µM | 44.4 µM | – | – | – | – | – | – | – | – | – | – | – |
| CCCCCCCC[N+](C)(C)Cc1ccc(C[N+](C)(C)CCCCCCCC)cc1 | > 100 µM | > 100 µM | > 100 µM | 97.6 µM | > 100 µM | > 100 µM | > 100 µM | > 100 µM | > 100 µM | – | – | – | – | – | – | – | – | – | – | – |
| COc1ccc2cc(C(=O)c3ccccc3C(=O)O)ccc2c1 | > 100 µM | > 100 µM | > 100 µM | > 100 µM | > 100 µM | > 100 µM | > 100 µM | > 100 µM | > 100 µM | – | – | – | – | – | – | – | – | – | – | – |
| CC1(C)SC2C(C(=O)O)N=C(Cc3ccccc3)N2C1C(=O)O (centres undefined) | > 100 µM | > 100 µM | > 100 µM | – | > 100 µM | 51.3 µM | > 100 µM | 29.7 µM | > 100 µM | – | – | – | > 100 µM | – | – | – | – | – | – | – |
| CC1(C)CC23C(=O)N(c4ccccc4)C(=Nc4ccccc4)NC2=CC(C#N)=C(C#N)C3O1 (centres undefined) | > 100 µM | > 100 µM | 95.5 µM | 89.9 µM | > 100 µM | 88.8 µM | > 100 µM | > 100 µM | > 100 µM | – | – | – | – | – | – | – | – | – | – | – |
| Nn1c(CCCl)nc2c(Br)cc(Br)cc2c1=O | 55.1 µM | 38.1 µM | 37.8 µM | 6.5 µM | > 100 µM | > 75.1 µM | > 58 µM | > 93.7 µM | > 90.9 µM | – | – | – | – | – | – | – | – | – | – | – |
| C/C(CC(=O)CCCC(=O)Nc1ccc(Cl)cc1Cl)=N/NC(=O)CC#N | > 100 µM | > 100 µM | > 100 µM | > 100 µM | > 100 µM | > 100 µM | > 100 µM | > 100 µM | > 100 µM | – | – | – | – | – | – | – | – | – | – | – |
| CS(=O)(=O)c1ccc(N/N=C/c2c(-c3ccc(S(C)(=O)=O)cc3)[nH]c3ccc(F)cc23)cc1 | > 50 µM | > 50 µM | 1.5 µM | > 50 µM | 4.38 µM | – | > 50 µM | > 50 µM | 4.73 µM | 18.1 µM | 2.84 µM | 1.69 µM | > 50 µM | 0.792 µM | 2.59 µM | – | 1.47 µM | 1.74 µM | 1.34 µM | 40.2 µM |
| O=C(O)C1C2C=CC(O2)C1C(=O)Nc1ccccc1 (centres undefined) | > 100 µM | > 100 µM | > 100 µM | – | > 100 µM | > 100 µM | > 100 µM | > 100 µM | > 100 µM | – | – | – | > 100 µM | – | – | – | – | – | – | – |
| CCOC(=O)/C(=C/c1ccc(OC)c(OC)c1)C(=O)c1ccccc1 | 42 µM | 31.5 µM | 29.5 µM | – | > 100 µM | – | 65 µM | 67.4 µM | > 100 µM | – | – | – | – | – | – | – | – | – | – | – |
| c1cncc(C2c3[nH]c4ccccc4c3CCN2CCCN2CCCCC2)c1 (centres undefined) | > 100 µM | > 100 µM | > 100 µM | > 100 µM | 92.5 µM | > 100 µM | > 100 µM | > 100 µM | > 100 µM | – | – | – | – | – | – | – | – | – | – | – |
| C=C(C)C1CC=C(C(=O)O)CC1 (centres undefined) | 1670 µM | 2140 µM | 1450 µM | 2630 µM | 1630 µM | 2590 µM | 2630 µM | > 5000 µM | 3220 µM | – | – | – | – | – | – | – | – | – | – | – |
| COc1cc(C(=O)C/C(CCC(=O)Nc2ccccc2[N+](=O)[O-])=N\NC(=O)C(N)=O)ccc1O | > 100 µM | > 100 µM | – | > 100 µM | – | > 100 µM | > 100 µM | > 100 µM | > 100 µM | – | – | – | – | – | – | – | – | – | – | – |
